The NIST ThermoML archive (doi:10.1021/je300853z)
Numbers after ± are expanded uncertainties.

Tests used:
[1] = excess molar enthalpy (molar enthalpy of mixing); xn = mol fraction of the nth substance listed; conditions: 308.15 K, 101 kPa, Liquid, Calvet calorimetry
[2] = molar heat capacity at constant pressure; xn = mol fraction of the nth substance listed; conditions: 101 kPa, Liquid, Small sample (50 mg) DSC

CCCCCCCC[n+]1ccc2ccccc2c1.N#C[S-] [2-octylisoquinolinium thiocyanate] + O
[1]
Conditions	excess molar enthalpy [kcal/mol]
x1 = 0.8523	-0.0736 ± 0.000765
x1 = 0.8782	-0.0631 ± 0.000669
x1 = 0.9058	-0.0516 ± 0.000598
x1 = 0.9352	-0.039 ± 0.000502
x1 = 0.9665	-0.0244 ± 0.000382

molar heat capacity at constant pressure [J/K/mol], [2]
Conditions	x1 = 0.3977	x1 = 0.5237	x1 = 0.5945	x1 = 0.7214	x1 = 0.8097	x1 = 0.8935
278.15 K	248 ± 5	295 ± 6	334 ± 7	386 ± 8	423 ± 8	467 ± 9
283.15 K	250 ± 5	304 ± 6	337 ± 7	388 ± 8	426 ± 9	470 ± 9
288.15 K	251 ± 5	306 ± 6	340 ± 7	391 ± 8	429 ± 9	474 ± 9
293.15 K	253 ± 5	309 ± 6	342 ± 7	393 ± 8	432 ± 9	476 ± 10
298.15 K	255 ± 5	311 ± 6	344 ± 7	396 ± 8	434 ± 9	479 ± 10
303.15 K	257 ± 5	313 ± 6	347 ± 7	398 ± 8	437 ± 9	482 ± 10
308.15 K	258 ± 5	315 ± 6	349 ± 7	400 ± 8	439 ± 9	484 ± 10
313.15 K	260 ± 5	316 ± 6	351 ± 7	402 ± 8	441 ± 9	487 ± 10
318.15 K	261 ± 5	318 ± 6	353 ± 7	404 ± 8	441 ± 9	490 ± 10
323.15 K	261 ± 5	319 ± 6	355 ± 7	405 ± 8	442 ± 9	492 ± 10
328.15 K	262 ± 5	320 ± 6	357 ± 7	406 ± 8	443 ± 9	495 ± 10
333.15 K	263 ± 5	321 ± 6	358 ± 7	408 ± 8	443 ± 9	497 ± 10
338.15 K	263 ± 5	322 ± 6	360 ± 7	408 ± 8	442 ± 9	500 ± 10
